Tests used:
human recombinant COX-2 = molecular target: T1, human recombinant COX-2 (Homo sapiens, UniProt P35354); assay: COX Fluorescent Inhibitor Screening assay, COX-2; assay type: biochemical; conditions: FIG. 4B
T1 construct: purchased Cayman Chemical 700100
T1 sequence (P35354 18-604): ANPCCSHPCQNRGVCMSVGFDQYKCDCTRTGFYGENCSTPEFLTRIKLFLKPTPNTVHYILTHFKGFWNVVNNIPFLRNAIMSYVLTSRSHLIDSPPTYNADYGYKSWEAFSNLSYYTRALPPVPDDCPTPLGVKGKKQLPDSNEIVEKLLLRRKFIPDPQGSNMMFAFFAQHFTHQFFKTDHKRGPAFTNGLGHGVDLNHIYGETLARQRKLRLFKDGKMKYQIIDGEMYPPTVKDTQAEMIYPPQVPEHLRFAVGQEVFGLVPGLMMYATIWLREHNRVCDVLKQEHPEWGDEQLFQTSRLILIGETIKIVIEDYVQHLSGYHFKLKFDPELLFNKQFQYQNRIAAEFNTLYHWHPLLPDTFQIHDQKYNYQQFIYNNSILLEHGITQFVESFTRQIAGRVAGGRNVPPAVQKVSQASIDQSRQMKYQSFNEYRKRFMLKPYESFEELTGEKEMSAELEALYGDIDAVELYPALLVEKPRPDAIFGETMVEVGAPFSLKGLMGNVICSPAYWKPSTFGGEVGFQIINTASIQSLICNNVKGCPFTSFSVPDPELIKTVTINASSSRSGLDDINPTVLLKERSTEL
Experimental: Compounds were assayed for cyclooxygenase (COX) inhibition using the COX Fluorescent Inhibitor Screening Kit from Cayman Chemical (Item #: 700100). Briefly, COX enzyme (ovine COX-1 or human recombinant COX-2) diluted in 1× reaction buffer is incubated with the compound or DMSO control for 20 min at 25° C. in a half-area 96-well black microplate. Background wells are also included that contained no enzyme. Added to each well were heme B, to ensure enzyme activity, and 10-acetyl-3,7-dihydroxyphenoxazine (ADHP) assay reagent. After the 20 min incubation, arachidonic acid (AA) substrate was added to all wells. As shown by the schematic diagram below, active COX enzyme converts AA to hydroperoxy endoperoxide (PGG2). Catalyzed by the secondary peroxidase activity of COX, ADHP can react with PGG2 to form a highly fluorescent compound, resorufin. Fluorescence was measured with a […] excitation wavelength and a 585-595 nm emission wavelength. Decreased fluorescence relative to the DMSO control indicates COX inhibition. See, also, Piazza G A, Keeton A B, Tinsley H N, Gary B D, Whitt J D, Mathew B, Thaiparambil J, Coward L, Gorman, G, Li Y, Sani B, Hobrath J V, Maxuitenko Y Y and Reynolds R C. […] Cancer Prevention Research 2009; 2: 572-580.

PDE5 = PDE5 (Homo sapiens, UniProt O76074); assay: IMAP fluorescence polarization PDE assay, PDE5; assay type: biochemical; conditions: FIG. 5A
Experimental: (§1) PDE activity was measured using the IMAP fluorescence polarization PDE assay (Molecular Devices) in which the binding of hydrolyzed fluorescent cyclic nucleotide substrate to the IMAP reagent increases fluorescence polarization. Each well of a 96-well nonbinding plate contained 0.25 mg/mL of recombinant enzyme preparations. Enzymes were incubated with COMPOUND 9 or vehicle (DMSO) for 30 min at 30° C. before the addition of a substrate mixture containing 25 nmol/L of fluorescein-cGMP. The DMSO final concentration for each experiment was 2%. After 90 min of incubation at 30° C., the reaction was terminated by the addition of binding reagent. The maximum Fluorescence polarization was measured using a Synergy4 (BioTek) plate reader.

PDE10 = PDE10 (Homo sapiens, UniProt Q9Y233); assay: IMAP fluorescence polarization PDE assay, PDE10; assay type: biochemical; conditions: FIG. 5B
PDE10, sequence (Q9Y233 whole entry): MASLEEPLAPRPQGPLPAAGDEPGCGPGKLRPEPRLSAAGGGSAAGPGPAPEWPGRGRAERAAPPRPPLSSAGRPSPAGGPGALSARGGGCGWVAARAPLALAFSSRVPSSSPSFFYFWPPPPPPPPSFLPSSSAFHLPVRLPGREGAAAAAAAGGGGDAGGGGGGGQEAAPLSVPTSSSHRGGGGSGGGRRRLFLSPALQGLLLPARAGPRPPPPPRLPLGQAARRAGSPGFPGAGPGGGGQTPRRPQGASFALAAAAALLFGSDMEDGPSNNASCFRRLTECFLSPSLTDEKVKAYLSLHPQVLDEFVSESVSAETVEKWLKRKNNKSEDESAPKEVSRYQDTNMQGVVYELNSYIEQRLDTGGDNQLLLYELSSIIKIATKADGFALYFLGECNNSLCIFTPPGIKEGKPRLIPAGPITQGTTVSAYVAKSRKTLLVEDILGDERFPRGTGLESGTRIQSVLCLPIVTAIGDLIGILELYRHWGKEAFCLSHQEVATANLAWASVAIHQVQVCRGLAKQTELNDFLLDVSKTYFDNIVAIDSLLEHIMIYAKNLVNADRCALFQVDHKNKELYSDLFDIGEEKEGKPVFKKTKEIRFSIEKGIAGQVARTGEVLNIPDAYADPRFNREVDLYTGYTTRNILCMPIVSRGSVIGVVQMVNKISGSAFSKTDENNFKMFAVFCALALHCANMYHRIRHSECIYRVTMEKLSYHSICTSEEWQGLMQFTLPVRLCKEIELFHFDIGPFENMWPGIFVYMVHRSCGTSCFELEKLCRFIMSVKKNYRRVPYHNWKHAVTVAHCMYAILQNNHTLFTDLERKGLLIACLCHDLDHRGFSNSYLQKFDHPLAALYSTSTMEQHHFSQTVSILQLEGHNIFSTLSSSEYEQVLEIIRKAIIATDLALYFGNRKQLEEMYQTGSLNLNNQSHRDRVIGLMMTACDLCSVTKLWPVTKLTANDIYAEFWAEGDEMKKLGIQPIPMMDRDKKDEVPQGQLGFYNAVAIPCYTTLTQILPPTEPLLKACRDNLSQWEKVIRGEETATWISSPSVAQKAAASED
Experimental: as §1

[1] = test system: rat intact hearts (Langendorff model); assay: Langendorff model of ischemia/reperfusion injury, LDH release; assay type: in vivo, Sprague Dawley rats
Experimental: (§2) The ex vivo Langendorff procedure is a well-established preparation used to investigate heart physiology, ischemia/reperfusion injury, and other cardiovascular insults (23, 24; also see, e.g., reference 22). Sprague Dawley rats (275-325g) were administered either no drug or Compound 9 daily (at 0.7 mg/kg) for a total of two days (two administrations in total). Forty-eight hours after the start of drug exposure, hearts were removed and exposed to 45 min no flow ischemia and 2 h reperfusion in the Langendorff model (hearts were first equilibrated in KHB buffer for 10 min and then subjected to 45 min ischemia followed by 2 h reperfusion with KHB buffer), in the absence of drug.
In LDH and TTC assays for the Langendorff Preparation, coronary effluent samples (500 μL) from the Langendorff preparation were obtained upon attachment of excised heart, every 15 min before ischemia, immediately after 45 min ischemia, and at 15 min intervals during reperfusion. LDH was measured (using a Cytotox-96 nonradioactive cytotoxicity assay kit (Promega), with the absorbance read at 490 nm). Immediately upon completion, the heart was sliced into 2-mm cross-sectional pieces and slices were incubated for 30 min with 1% 2,3,5-triphenyl tetrazolium chloride (TTC) stain in Krebs-Henseleit buffer (KHB) (pH=7.4) at 37° C. to distinguish between viable (red) and nonviable (white) tissue. Tissue slices were stored overnight in 10% formaldehyde before measurement of infarct size using NIH-Image J software.
The protective (preconditioning) effect of Compound 9 was evaluated in an art-recognized Langendorff model of ischemia/reperfusion injury. Compound 9 was administered via i.p. injection to test animals daily for two days, and animal hearts were then removed for performance of the Langendorff procedure (described above and known in the art).

[2] = test system: rat intact hearts (Langendorff model); assay: Langendorff model of ischemia/reperfusion injury, infarct size by TTC staining; assay type: in vivo, Sprague Dawley rats; conditions: 45 min ischemia and 2 h reperfusion; 0.7 mg/kg daily for 48 h; FIG. 8
Experimental: as §2
In LDH and TTC assays for the Langendorff Preparation, coronary effluent samples (500 μL) from the Langendorff preparation were obtained upon attachment of excised heart, every 15 min before ischemia, immediately after 45 min ischemia, and at 15 min intervals during reperfusion. LDH was measured (using a Cytotox-96 nonradioactive cytotoxicity assay kit (Promega), with the absorbance read at 490 nm). […]
The protective (preconditioning) effect of Compound 9 was evaluated in an art-recognized Langendorff model of ischemia/reperfusion injury. […]

[3] = 0.7 mg/kg i.p. daily for 48 h, FIG. 9

Compound: COc1cc2c(cc1OC)/C(=C\c1cc(OC)c(OC)c(OC)c1)C(C)=C2CC(=O)O [Compound 9, (Z)-2-(5,6-dimethoxy-2-methyl-1-(3,4,5-trimethoxybenzylidene)-1H-inden-3-yl)acetic acid]
- COX-2 inhibition: fold less potent than celecoxib (human recombinant COX-2): approximately 1000 ×
- IC50 (PDE5): ~32 µM
- IC50 (PDE10): ~7 µM
- Protective effect during the 45 min ischemia phase [1, 3]: robust protective effect
- Protective effect during the 2 h reperfusion phase [1, 3]: robust protective effect
- LDH levels vs no drug control ([1]; 2 h reperfusion, 0.7 mg/kg daily for 48 h, FIG. 7): decrease in LDH levels
- Levels of LDH released vs no drug ([1]; after 45 min no flow ischemia, 0.7 mg/kg daily for 48 h, FIG. 7): significantly lower
- Infarction size (percent of heart infarcted, TTC staining) [2]: below 20%

— patent publication US11186534B2, “Derivatives of sulindac can protect normal cells against oxidative damage” (University of South Alabama, priority 2017, dated 2021)
